In patent US7514443B2, “Substituted pyrazolo[1,5-a]pyrimidines as inhibitors of metabotropic glutamate receptors” (Hoffmann-La Roche Inc., priority 2003, dated 2009):

In order of rising melting point:
1. N#Cc1cnn2c(C(F)(F)F)cc(-c3ccccc3Cl)nc12 [Example 1.3, 5-(2-Chloro-phenyl)-7-trifluoromethyl-pyrazolo[1,5-a]pyrimidine-3-carbonitrile]  169 °C
2. FC(F)(F)c1cccc(-c2cc(C(F)(F)F)n3ncc(-c4cccnc4)c3n2)c1 [Example 4.13, 5-(3-Trifluoromethyl-phenyl)-3-pyridin-3-yl-7-trifluoromethyl-pyrazolo[1,5-a]pyrimidine]  171 °C
3. N#Cc1cnn2c(C(F)(F)F)cc(-c3ccc(C(F)(F)F)cc3)nc12 [Example 1.7, 5-(4-Trifluoromethyl-phenyl)-7-trifluoromethyl-pyrazolo[1,5-a]pyrimidine-3-carbonitrile]  176 °C
4. CCOc1cc(-c2cc(C(F)(F)F)n3cnc(-c4ccnc(C)c4)c3n2)ccc1C(F)(F)F [Example 8.31, 2-(3-Ethoxy-4-trifluoromethyl-phenyl)-8-(2-methyl-pyridin-4-yl)-4-trifluoromethyl-imidazo[1,5-a]pyrimidine]  177 °C
5. N#Cc1ncn2c(C(F)(F)F)cc(-c3ccccc3Cl)nc12 [Example 5.6, 2-(2-Chloro-phenyl)-4-trifluoromethyl-imidazo[1,5-a]pyrimidine-8-carbonitrile]  180 °C
6. Cc1ccc(-c2cc(C(F)(F)F)n3ncc(-c4cccnc4)c3n2)cc1C(F)(F)F [Example 4.26, 5-(4-Methyl-3-trifluoromethyl-phenyl)-3-pyridin-3-yl-7-trifluoromethyl-pyrazolo[1,5-a]pyrimidine]  182 °C
7. N#CCc1nn2c(C(F)(F)F)cc(-c3ccc(F)c(Cl)c3)nc2c1C#N [Example 3.1, 5-(3-Chloro-4-fluoro-phenyl)-2-cyanomethyl-7-trifluoromethyl-pyrazolo[1,5-a]pyrimidine-3-carbonitrile]  185 °C
8. FC(F)(F)c1cc(-c2ccc(Cl)cc2)nc2c(-c3cccnc3)cnn12 [Example 4.1, 5-(4-Chloro-phenyl)-3-pyridin-3-yl-7-trifluoromethyl-pyrazolo[1,5-a]pyrimidine]  188 °C
9. Fc1ccc(-c2cc(C(F)(F)F)n3cnc(-c4cccnc4)c3n2)cc1Cl [Example 8.3, 2-(3-Chloro-4-fluoro-phenyl)-8-pyridin-3-yl-4-trifluoromethyl-imidazo[1,5-a]pyrimidine]  188 °C
10. FC(F)(F)c1cc(-c2ccc(Cl)c(Cl)c2)nc2c(-c3ccccn3)cnn12 [Example 4.11, 5-(3,4-Dichloro-phenyl)-3-pyridin-2-yl-7-trifluoromethyl-pyrazolo[1,5-a]pyrimidine]  188 °C
11. N#Cc1cnn2c(C(F)(F)F)cc(-c3ccc(F)c(Cl)c3)nc12 [Example 1.14, 5-(3-Chloro-4-fluoro-phenyl)-7-trifluoromethyl-pyrazolo[1,5-a]pyrimidine-3-carbonitrile]  190 °C
12. N#Cc1cnn2c(C(F)(F)F)cc(-c3cccc(C(F)(F)F)c3)nc12 [Example 1.6, 5-(3-Trifluoromethyl-phenyl)-7-trifluoromethyl-pyrazolo[1,5-a]pyrimidine-3-carbonitrile]  192 °C
13. Cc1ccc(-c2cc(C(F)(F)F)n3cnc(C#N)c3n2)cc1 [Example 5.4, 2-(4-Methyl-phenyl)-4-trifluoromethyl-imidazo[1,5-a]pyrimidine-8-carbonitrile]  197 °C
14. N#Cc1cnn2c(C(F)(F)F)cc(-c3cccc(F)c3)nc12 [Example 1.8, 5-(3-Fluoro-phenyl)-7-trifluoromethyl-pyrazolo[1,5-a]pyrimidine-3-carbonitrile]  199 °C
15. N#Cc1ncn2c(C(F)(F)F)cc(-c3ccccc3)nc12 [Example 5.1, 2-Phenyl-4-trifluoromethyl-imidazo[1,5-a]pyrimidine-8-carbonitrile]  202 °C
16. N#Cc1ncn2c(C(F)(F)F)cc(-c3cccc(C(F)(F)F)c3)nc12 [Example 5.11, 2-(3-Trifluoromethyl-phenyl)-4-trifluoromethyl-imidazo[1,5-a]pyrimidine-8-carbonitrile]  202 °C
17. FC(F)(F)c1ccc(-c2cc(C(F)(F)F)n3ncc(-c4ccncc4)c3n2)cc1C(F)(F)F [Example 4.53, 5-(3,4-Bis-trifluoromethyl-phenyl)-3-pyridin-4-yl-7-trifluoromethyl-pyrazolo[1,5-a]pyrimidine]  209 °C
18. Cc1cc(-c2cnn3c(C(F)(F)F)cc(-c4ccc(OCC(F)(F)F)c(C(F)(F)F)c4)nc23)ccn1 [Example 4.46, 5-[4-(2,2,2-Trifluoroethoxy)-3-trifluoromethyl-phenyl]-3-(2-methyl-pyridin-4-yl)-7-trifluoromethyl-pyrazolo[1,5-a]pyrimidine]  210 °C
19. Cc1ccc(-c2cc(C(F)(F)F)n3ncc(-c4ccncc4)c3n2)cc1C(F)(F)F [Example 4.27, 5-(4-Methyl-3-trifluoromethyl-phenyl)-3-pyridin-4-yl-7-trifluoromethyl-pyrazolo[1,5-a]pyrimidine]  218 °C
20. OCc1cc(-c2cnn3c(C(F)(F)F)cc(-c4ccc(Cl)c(Cl)c4)nc23)ccn1 [Example 6.4, {4-[5-(3,4-Dichloro-phenyl)-7-trifluoromethyl-pyrazolo[1,5-a]pyrimidin-3-yl]-pyridin-2-yl}-methanol]  233 °C
21. CCOc1ccc(-c2cc(C(F)(F)F)n3ncc(-c4ccncc4)c3n2)cc1C(F)(F)F [Example 4.41, 5-(4-Ethoxy-3-trifluoromethyl-phenyl)-3-pyridin-4-yl-7-trifluoromethyl-pyrazolo[1,5-a]pyrimidine]  233 °C
22. Cc1cc(-c2ncn3c(C(F)(F)F)cc(-c4cccc(C(F)(F)F)c4)nc23)ccn1 [Example 8.25, 8-(2-Methyl-pyridin-4-yl)-4-trifluoromethyl-2-(3-trifluoromethyl-phenyl)-imidazo[1,5-a]pyrimidine]  234 °C
23. Cc1cc(-c2cc(C(F)F)n3ncc(-c4ccncc4)c3n2)ccc1C(F)(F)F [Example 9.3, 7-Difluoromethyl-5-(3-methyl-4-trifluoromethyl-phenyl)-3-pyridin-4-yl-pyrazolo[1,5-a]pyrimidine]  236 °C
24. Cc1cc(-c2cnn3c(C(F)(F)F)cc(-c4ccc(C(F)(F)F)c(C)c4)nc23)ccn1 [Example 4.39, 5-(3-Methyl-4-trifluoromethyl-phenyl)-3-(2-methyl-pyridin-4-yl)-7-trifluoromethyl-pyrazolo[1,5-a]pyrimidine]  237 °C
25. Cc1cc(-c2cnn3c(C(F)(F)F)cc(-c4ccc(Cl)c(C)c4)nc23)ccn1 [Example 4.30, 5-(4-Chloro-3-methyl-phenyl)-3-(2-methyl-pyridin-4-yl)-7-trifluoromethyl-pyrazolo[1,5-a]pyrimidine]  240 °C
26. FC(F)(F)c1ccc(-c2cc(C(F)(F)F)n3cnc(-c4ccncc4)c3n2)cc1 [Example 8.14, 8-Pyridin-4-yl-4-trifluoromethyl-2-(4-trifluoromethyl-phenyl)-imidazo[1,5-a]pyrimidine]  240 °C
27. COc1ccc(-c2cc(C(F)(F)F)n3ncc(-c4ccncc4)c3n2)cc1 [Example 4.58, 5-(4-Methoxy-phenyl)-3-pyridin-4-yl-7-trifluoromethyl-pyrazolo[1,5-a]pyrimidine]  244 °C
28. Cc1cc(-c2ncn3c(C(F)(F)F)cc(-c4ccc(Br)cc4)nc23)ccn1 [Example 8.36, 2-(4-Bromo-phenyl)-8-(2-methyl-pyridin-4-yl)-4-trifluoromethyl-imidazo[1,5-a]pyrimidine]  249 °C
29. CCOc1ccc(-c2cc(C(F)(F)F)n3ncc(-c4ccnc(C)c4)c3n2)cc1C(F)(F)F [Example 4.44, 5-(4-Ethoxy-3-trifluoromethyl-phenyl)-3-(2-methyl-pyridin-4-yl)-7-trifluoromethyl-pyrazolo[1,5-a]pyrimidine]  250 °C
30. Cc1cc(-c2cnn3c(C(F)(F)F)cc(-c4ccc(C(F)(F)F)c(C)c4)nc23)cc(C)n1 [Example 4.38, 5-(3-Methyl-4-trifluoromethyl-phenyl)-3-(2,6-dimethyl-pyridin-4-yl)-7-trifluoromethyl-pyrazolo[1,5-a]pyrimidine]  253 °C
31. Cc1cc(-c2cnn3c(C(F)(F)F)cc(-c4ccc(Cl)c(C)c4)nc23)cc(C)n1 [Example 4.20, 5-(4-Chloro-3-methyl-phenyl)-3-(2,6-dimethyl-pyridin-4-yl)-7-trifluoromethyl-pyrazolo[1,5-a]pyrimidine]  254 °C
32. Cc1cc(-c2ncn3c(C(F)(F)F)cc(-c4ccc(F)c(Cl)c4)nc23)ccn1 [Example 8.22, 2-(3-Chloro-4-fluoro-phenyl)-8-(2-methyl-pyridin-4-yl)-4-trifluoromethyl-imidazo[1,5-a]pyrimidine]  255 °C
33. CCOc1cc(-c2cc(C(F)(F)F)n3ncc(-c4cc(C)nc(C)c4)c3n2)ccc1C(F)(F)F [Example 4.48, 3-(2,6-Dimethyl-pyridin-4-yl)-5-(3-ethoxy-4-trifluoromethyl-phenyl)-7-trifluoromethyl-pyrazolo[1,5-a]pyrimidine]  257 °C
34. FC(F)(F)c1cccc(-c2cc(C(F)(F)F)n3cnc(-c4ccncc4)c3n2)c1 [Example 8.13, 8-Pyridin-4-yl-4-trifluoromethyl-2-(3-trifluoromethyl-phenyl)-imidazo[1,5-a]pyrimidine]  258 °C
35. Fc1cc(-c2cc(C(F)(F)F)n3ncc(-c4ccncc4)c3n2)ccc1C(F)(F)F [Example 4.17, 5-(3-Fluoro-4-trifluoromethyl-phenyl)-3-pyridin-4-yl-7-trifluoromethyl-pyrazolo[1,5-a]pyrimidine]  262 °C
36. Fc1ccc(-c2cc(C(F)(F)F)n3cnc(-c4ccncc4)c3n2)cc1Cl [Example 8.11, 2-(3-Chloro-4-fluoro-phenyl)-8-pyridin-4-yl-4-trifluoromethyl-imidazo[1,5-a]pyrimidine]  266 °C
37. Cc1cc(-c2cnn3c(C(F)(F)F)cc(-c4ccc(F)c(Cl)c4)nc23)ccn1 [Example 4.31, 5-(3-Chloro-4-fluoro-phenyl)-3-(2-methyl-pyridin-4-yl)-7-trifluoromethyl-pyrazolo[1,5-a]pyrimidine]  292 °C
